{"source": "patent US8247565B2", "about": "“Sirtuin modulating compounds” (Sirtris Pharmaceuticals, Inc., priority 2007, dated 2012)", "key": {"[1]": {"assay": "Salt/free base screening by DSC and TGA (physical stability, polymorphs)", "type": "physicochemical", "settings": "for polymorphism / phase changes on heating (DSC, TGA): thermal range evaluated by DSC/TGA (FIGS. 1, 2)", "experimental": "Eight acceptable (Regulatory and pKa) salts were made of Compound 1, namely with hydrochloric acid, sulfuric acid, methanesulfonic acid, maleic acid, phosphoric acid, L-tartaric acid, citric acid, and malic acid. The resulting salts or the free base were then screened on: • 1) Processing, morphology, polymorphs; • 2) Crystal shape, single stable polymorph; • 3) Physical stability; • 4) Open dish accelerated stability (40° C./75% RH); and • 5) Biorelevant dissolution.\nSince no other thermal transitions are observed in the DSC or TGA results, it appears Compound 1 exists only as a single phase (i.e. no polymorphs) over the thermal range evaluated.\nSince the polymorphic transitions can have significant effects on dissolution and bioavailability of the drug substance, it is practical to select forms of the drug substance that minimize or eliminate the potential for phase transitions."}, "[2]": {"tested_on": "Ob/ob mouse", "assay": "Blood glucose in Ob/ob mouse model", "type": "in vivo", "settings": "ob/ob mice, free base 100 mg/kg", "text": "(§1) The purpose of this example was to compare the efficacy of Compound 1 in salt and free base formulations in two different mouse models of diabetes, a diet induced obesity model (DIO) and the Ob/ob mouse. Blood glucose was the main determinant through the experiment of efficacy.\nOb/ob mice are genetically manipulated knockout mice that lack leptin, an important satiety protein that neurologically signals the end of hunger. The leptin mutation is homozygous and a heterozygous strain is included as a control (Ob/+); this group should not show increased weight or blood glucose, aside from the normal effects of being on a high fat diet.\nDuring week 1, there is already a decrease in blood glucose of almost 60 mg/dL from the vehicle group. This trend continued for the fasted glucose at week 2 (FIG. 7) as the Compound 1 group had 158.3 mg/dL glucose compared to 285.3 mg/dL glucose in the vehicle group."}, "[3]": {"tested_on": "diet induced obesity model (DIO)", "assay": "Blood glucose in diet induced obesity (DIO) mouse model", "type": "in vivo, C57BL/6 male mice", "settings": "DIO mice; for blood glucose vs vehicle: from week 2 onwards (FIGS. 3-5); for week 4 fed glucose test vs vehicle: blood glucose remained lower than vehicle", "text": "as §1\nFor the diet induced obesity model, six week old C57BL/6 male mice (Charles River Labs) were fed a high fat diet (60% calories from fat; Research Diets) for approximately 6 weeks until their body weight reached approximately 40 g. Test compounds were administered daily via oral gavage at the indicated doses. The vehicle used was 2% HPMC and 0.2% DOSS. Individual mouse body weights were measured twice weekly. Every 2 weeks throughout the study, mice from each group were bled via the tail vein for determination of blood glucose. Statistical analysis was completed using the JMP program (Version 6). Data were analyzed by a one way ANOVA with comparison to control using a Dunnett's Test. A p value <0.05 indicated a significant difference between groups.\nCompound 1 in the free base form was then tested in the DIO model."}}, "note": "Structures can show the parent of a compound that is named as a salt."}
{"smiles": "Cc1nc(-c2cccnc2)sc1C(=O)Nc1ccccc1-c1cn2c(CN3CCOCC3)csc2n1", "note": "[Compound 1, 4-methyl-N-(2-(3-(morpholinomethyl)imidazo[2,1-b]thiazol-6-yl)phenyl)-2-(pyridin-3-yl)thiazole-5-carboxamide]", "values": [{"measurement": "polymorphism / phase changes on heating (DSC, TGA)", "setting": "[1]", "result": "no polymorphs"}, {"measurement": "decrease in blood glucose from the vehicle group", "setting": "[2]; week 1 (FIG. 6)", "result": "~60", "unit": "mg/dL"}, {"measurement": "fasted blood glucose", "setting": "[2]; week 2 fasted (FIG. 7), vehicle group 285.3 mg/dL, p less than 0.0001", "result": 158.3, "unit": "mg/dL"}, {"measurement": "blood glucose relative to vehicle groups", "setting": "[2]; week 3 fed (FIG. 8)", "result": "significant (p<0.01) decrease"}, {"measurement": "blood glucose vs vehicle", "setting": "[3]; 100 mg/kg/day oral gavage", "result": "significant reductions in blood glucose"}, {"measurement": "blood glucose vs vehicle group at weeks 2 and 3", "setting": "[3]; free base 100 mg/kg/day, weeks 2 (fed) and 3 (fasted), p value less than 0.01", "result": "significant decrease"}]}
{"smiles": "O=C(Nc1ccccc1-c1cn2c(CN3CCNCC3)csc2n1)c1cnc2ccccc2n1", "note": "[Compound 2, N-(2-(3-(piperazin-1-ylmethyl)imidazo[2,1-b]thiazol-6-yl)phenyl)quinoxaline-2-carboxamide]", "values": [{"measurement": "blood glucose vs vehicle", "setting": "[3]; 100 mg/kg/day oral gavage", "result": "significant reductions in blood glucose"}, {"measurement": "week 4 fed glucose test vs vehicle", "setting": "[3]; 100 mg/kg/day", "result": "significance was lost"}]}
{"smiles": "Cc1nc(-c2cccnc2)sc1C(=O)Nc1ccccc1-c1cn2c(CN3CCOCC3)csc2n1", "note": "[HCl salt form of Compound 1]", "values": [{"measurement": "hygroscopicity", "setting": "[1]; TGA weight loss on heating attributed to water loss", "result": "hygroscopic"}, {"measurement": "polymorphism / phase changes on heating (DSC, TGA)", "setting": "[1]", "result": "transitions between polymorphic forms"}]}
{"smiles": "CN(C)C(=N)N=C(N)N", "note": "[metformin, reference compound]", "values": [{"measurement": "blood glucose vs vehicle", "setting": "[3]; 400 mg/kg/day oral gavage", "result": "significant reductions in blood glucose"}]}
{"smiles": "Oc1ccc(C=Cc2cc(O)cc(O)c2)cc1", "note": "[resveratrol, reference compound]", "values": [{"measurement": "blood glucose vs vehicle", "setting": "[3]; 1000 mg/kg/day oral gavage", "result": "significant reductions in blood glucose"}, {"measurement": "week 4 fed glucose test vs vehicle", "setting": "[3]; 1000 mg/kg/day", "result": "significance was lost"}]}
